Reference: article PMC9260081, “Design, Synthesis, and Evaluation of Anticonvulsant Activities of New Triazolopyrimidine Derivatives” (Frontiers in Chemistry, 2022)
Where two headings read alike, the source gives them in different places.

Tests used:
[1] = test system: ability to maintain equilibrium on rotating rod; assay: Neurotoxicity screening (rotarod test); assay type: in vivo; conditions: i.p., dosages 30, 100, 300 mg/kg
Protocol: (§1) Male Kunming mice with weights from 18 to 22 g were used in all the pharmacological experiments. The mice were housed in the standard cages with 10 each, where a controlled temperature (25°C ± 2°C) with a 12 h light/dark cycle was maintained. All animals had free access to food and water. All experiments and procedures involving animals were carried out according to the Guide for the Care and Use of Laboratory Animals (National Academies Press, Washington, D.C., United States). Approval from the local medical ethical committee was obtained before the experiment.
The rotarod test was used to evaluate the neurotoxicity of the synthesized compounds. Before the formal experiments, mice were trained to climb on a rotating rod of diameter 3.2 cm with the rotation speed of 10 rpm. Test compounds in the three doses were intraperitoneally injected into the trained mice. […] The rough neurotoxic dose was obtained in which mice cannot maintain equilibrium on the rod for at least 1 min. The quantitative neurotoxic dose (TD50) of the test compounds was measured and calculated with the same method described in the MES test.

[2] = test system: MES-induced seizures; assay: Maximal electroshock seizure (MES) test; assay type: in vivo, mice; conditions: Mus musculus, ip, mice, dosages 30, 100, 300 mg/kg, read-out: MES screening, minimum dose whereby bioactivity was demonstrated in half or more of the mice
Protocol: as §1
In the MES test, mice were subjected to ear stimulation using a 0.2 s 60-Hz 50-mA alternating current to elicit seizures. Tonic hind limb extension was considered as the seizure occurring, and the vanishing of tonic hind limb extension indicates the protection against the MES-induced seizures. Mice were injected intraperitoneally with test compounds at doses of 300, 100, and 30 mg/kg to evaluate their general anticonvulsant activity. Half and 4 h intervals were chosen to test the anti-MES activity. […] A series of doses of the tested compounds were injected into the mice with 10 in one group.

[3] = test system: PTZ-induced seizures; assay: Subcutaneous pentylenetetrazole (PTZ) test; assay type: in vivo, mice; conditions: Mus musculus, ip, mice, dosages 30, 100, 300 mg/kg, read-out: PTZ screening, minimum dose whereby bioactivity was demonstrated in half or more of the mice
Protocol: as §1
In the PTZ test, mice were subcutaneously administered with PTZ at the dose of 85 mg/kg. At this dose, mice can be elicited a threshold seizure characterized by an episode of clonic spasms and tonic spasms. After being treated with test compounds at doses of 300, 100, and 30 mg/kg, the mice were considered protected if a single episode of clonic spasms of more than 5 s duration was not obtained. The quantitative anticonvulsant activity (ED50) in the PTZ model was determined and calculated with the same method described in the MES test.

Row | SMILES | NT screening (rotarod), minimum neurotoxic dose in half or more of the mice ([1]; 0.5 h after injection) | NT screening (rotarod), minimum neurotoxic dose in half or more of the mice ([1]; 4 h after injection) | minimal effective dose ([2]; 0.5 h after injection) | minimal effective dose ([2]; 4 h after injection) | minimal effective dose ([3]; 0.5 h after injection) | minimal effective dose ([3]; 4 h after injection)
1 | Fc1ccc(-c2ccnc3ncnn23)cc1 [Compound 3b, 7-(4-Fluorophenyl)-[1,2,4]triazolo[1,5-a]pyrimidine] | — (A dash indicates the absence of anticonvulsant activity and neurotoxicity at the maximum dose administered (300 mg/kg)) | — (A dash indicates the absence of anticonvulsant activity and neurotoxicity at the maximum dose administered (300 mg/kg)) | 300 mg/kg | > 300 mg/kg | 300 mg/kg | > 300 mg/kg
2 | Clc1ccc(-c2ccnc3ncnn23)cc1 [Compound 3d, 7-(4-Chlorophenyl)-[1,2,4]triazolo[1,5-a]pyrimidine] | — (A dash indicates the absence of anticonvulsant activity and neurotoxicity at the maximum dose administered (300 mg/kg)) | — (A dash indicates the absence of anticonvulsant activity and neurotoxicity at the maximum dose administered (300 mg/kg)) | > 300 mg/kg | > 300 mg/kg | > 300 mg/kg | > 300 mg/kg
3 | Clc1ccc(-c2ccnc3ncnn23)c(Cl)c1 [Compound 3e, 7-(2,4-Dichlorophenyl)-[1,2,4]triazolo[1,5-a]pyrimidine] | — (A dash indicates the absence of anticonvulsant activity and neurotoxicity at the maximum dose administered (300 mg/kg)) | — (A dash indicates the absence of anticonvulsant activity and neurotoxicity at the maximum dose administered (300 mg/kg)) | 100 mg/kg | > 300 mg/kg | 100 mg/kg | > 300 mg/kg
4 | Brc1ccc(-c2ccnc3ncnn23)cc1 [Compound 3f, 7-(4-Bromophenyl)-[1,2,4]triazolo[1,5-a]pyrimidine] | — (A dash indicates the absence of anticonvulsant activity and neurotoxicity at the maximum dose administered (300 mg/kg)) | — (A dash indicates the absence of anticonvulsant activity and neurotoxicity at the maximum dose administered (300 mg/kg)) | > 300 mg/kg | > 300 mg/kg | > 300 mg/kg | > 300 mg/kg
5 | O=[N+]([O-])c1ccc(-c2ccnc3ncnn23)cc1 [Compound 3g, 7-(4-Nitrophenyl)-[1,2,4]triazolo[1,5-a]pyrimidine] | — (A dash indicates the absence of anticonvulsant activity and neurotoxicity at the maximum dose administered (300 mg/kg)) | — (A dash indicates the absence of anticonvulsant activity and neurotoxicity at the maximum dose administered (300 mg/kg)) | > 300 mg/kg | > 300 mg/kg | > 300 mg/kg | > 300 mg/kg
6 | Cc1ccc(-c2ccnc3ncnn23)cc1 [Compound 3h, 7-(P-tolyl)-[1,2,4]triazolo[1,5-a]pyrimidine] | — (A dash indicates the absence of anticonvulsant activity and neurotoxicity at the maximum dose administered (300 mg/kg)) | — (A dash indicates the absence of anticonvulsant activity and neurotoxicity at the maximum dose administered (300 mg/kg)) | 300 mg/kg | > 300 mg/kg | 100 mg/kg | > 300 mg/kg
7 | COc1ccc(-c2ccnc3ncnn23)cc1 [Compound 3i, 7-(4-Methoxyphenyl)-[1,2,4]triazolo[1,5-a]pyrimidine] | — (A dash indicates the absence of anticonvulsant activity and neurotoxicity at the maximum dose administered (300 mg/kg)) | — (A dash indicates the absence of anticonvulsant activity and neurotoxicity at the maximum dose administered (300 mg/kg)) | 300 mg/kg | > 300 mg/kg | 100 mg/kg | > 300 mg/kg
8 | c1ccc(-c2ccnc3ccnn23)cc1 [Compound 4a, 7-Phenylpyrazolo[1,5-a]pyrimidine] | — (A dash indicates the absence of anticonvulsant activity and neurotoxicity at the maximum dose administered (300 mg/kg)) | — (A dash indicates the absence of anticonvulsant activity and neurotoxicity at the maximum dose administered (300 mg/kg)) | > 300 mg/kg | > 300 mg/kg | > 300 mg/kg | > 300 mg/kg
9 | Fc1ccc(-c2ccnc3ccnn23)cc1 [Compound 4b, 7-(4-Fluorophenyl)pyrazolo[1,5-a]pyrimidine] | — (A dash indicates the absence of anticonvulsant activity and neurotoxicity at the maximum dose administered (300 mg/kg)) | — (A dash indicates the absence of anticonvulsant activity and neurotoxicity at the maximum dose administered (300 mg/kg)) | > 300 mg/kg | > 300 mg/kg | > 300 mg/kg | > 300 mg/kg
10 | Clc1ccccc1-c1ccnc2ccnn12 [Compound 4c, 7-(2-Chlorophenyl)pyrazolo[1,5-a]pyrimidine] | — (A dash indicates the absence of anticonvulsant activity and neurotoxicity at the maximum dose administered (300 mg/kg)) | — (A dash indicates the absence of anticonvulsant activity and neurotoxicity at the maximum dose administered (300 mg/kg)) | > 300 mg/kg | > 300 mg/kg | > 300 mg/kg | > 300 mg/kg
11 | Clc1ccc(-c2ccnc3ccnn23)cc1 [Compound 4d, 7-(4-Chlorophenyl)pyrazolo[1,5-a]pyrimidine] | — (A dash indicates the absence of anticonvulsant activity and neurotoxicity at the maximum dose administered (300 mg/kg)) | — (A dash indicates the absence of anticonvulsant activity and neurotoxicity at the maximum dose administered (300 mg/kg)) | > 300 mg/kg | > 300 mg/kg | > 300 mg/kg | > 300 mg/kg
12 | Clc1ccc(-c2ccnc3ccnn23)c(Cl)c1 [Compound 4e, 7-(2,4-Dichlorophenyl)pyrazolo[1,5-a]pyrimidine] | — (A dash indicates the absence of anticonvulsant activity and neurotoxicity at the maximum dose administered (300 mg/kg)) | — (A dash indicates the absence of anticonvulsant activity and neurotoxicity at the maximum dose administered (300 mg/kg)) | > 300 mg/kg | > 300 mg/kg | 300 mg/kg | > 300 mg/kg
13 | Brc1ccc(-c2ccnc3ccnn23)cc1 [Compound 4f, 7-(4-Bromophenyl)pyrazolo[1,5-a]pyrimidine] | — (A dash indicates the absence of anticonvulsant activity and neurotoxicity at the maximum dose administered (300 mg/kg)) | — (A dash indicates the absence of anticonvulsant activity and neurotoxicity at the maximum dose administered (300 mg/kg)) | > 300 mg/kg | > 300 mg/kg | > 300 mg/kg | > 300 mg/kg
14 | O=[N+]([O-])c1ccc(-c2ccnc3ccnn23)cc1 [Compound 4g, 7-(4-Nitrophenyl)pyrazolo[1,5-a]pyrimidine] | — (A dash indicates the absence of anticonvulsant activity and neurotoxicity at the maximum dose administered (300 mg/kg)) | — (A dash indicates the absence of anticonvulsant activity and neurotoxicity at the maximum dose administered (300 mg/kg)) | > 300 mg/kg | > 300 mg/kg | > 300 mg/kg | > 300 mg/kg
